Results on three compounds are retold here after article PMC10824666 (Nature Cancer, 2023).

One test concerns the target T1, TSSK1B (Homo sapiens, UniProt Q9BXA7).
T1 sequence (Q9BXA7 1-367): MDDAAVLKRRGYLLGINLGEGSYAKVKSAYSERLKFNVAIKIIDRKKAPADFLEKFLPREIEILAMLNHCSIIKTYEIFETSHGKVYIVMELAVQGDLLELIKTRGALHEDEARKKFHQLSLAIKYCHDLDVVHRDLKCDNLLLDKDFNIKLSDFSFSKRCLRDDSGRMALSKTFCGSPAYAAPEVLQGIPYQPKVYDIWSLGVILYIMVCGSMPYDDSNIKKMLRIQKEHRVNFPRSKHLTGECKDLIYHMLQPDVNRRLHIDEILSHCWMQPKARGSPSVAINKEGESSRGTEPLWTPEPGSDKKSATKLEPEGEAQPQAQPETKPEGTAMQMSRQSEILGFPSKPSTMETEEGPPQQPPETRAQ
Nature of the test: biochemical. The arrangement: Eurofins DiscoverX kinase panel, competitive binding assay at 1 uM, percent of DMSO control. To be noted: competitive binding, percent of DMSO control. In short, it runs like this:
(§1)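 Competitive binding assay across a 96-kinase panel with KIF18A compounds at 1 µM; values given as percentage of control (POC), single experiment.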

A further test has as its target T2, MAP2K3 (Homo sapiens, UniProt P46734).
T2 sequence (P46734 1-347): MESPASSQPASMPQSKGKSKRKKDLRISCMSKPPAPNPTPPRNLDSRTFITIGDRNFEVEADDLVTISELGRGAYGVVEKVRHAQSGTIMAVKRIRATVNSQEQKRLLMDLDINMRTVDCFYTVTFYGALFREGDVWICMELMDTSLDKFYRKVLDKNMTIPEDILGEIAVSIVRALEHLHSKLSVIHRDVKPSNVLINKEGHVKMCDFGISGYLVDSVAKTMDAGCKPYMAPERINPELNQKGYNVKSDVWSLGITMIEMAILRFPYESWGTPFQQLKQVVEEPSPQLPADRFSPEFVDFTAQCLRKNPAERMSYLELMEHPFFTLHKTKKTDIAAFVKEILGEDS
Description: biochemical. The arrangement: Eurofins DiscoverX kinase panel, competitive binding assay at 1 uM, percent of DMSO control. To be noted: competitive binding, percent of DMSO control. In short, it runs like this:
as §1

Setting [1] is: read-out: Kinome Profiling performed by Eurofins DiscoverX / AM-0277, 1.0 µM / POC.
Setting [2] is: read-out: Kinome Profiling performed by Eurofins DiscoverX / AM-1882, 1.0 µM / POC.
[3] abbreviates: read-out: Kinome Profiling performed by Eurofins DiscoverX / AM-5308, 1.0 µM / POC.

Like-named read-outs stand apart in the source and are kept apart here.

In the case of `CC(C)(CO)Nc1ccc(C(=O)Nc2cccc(S(=O)(=O)C3CCCC3)c2)c(N2CCC3(CC2)CC3)n1` [AM-0277], the values for the remaining activity at 1 µM at TSSK1B (setting [1]) and at MAP2K3 (setting [1]) were 84% and 96%, respectively.
Consider `CC(C)(C)NS(=O)(=O)c1cccc(NC(=O)c2ccc(S(=O)(=O)NC(C)(C)C)cc2N2CCC3(CC2)CC3)c1` [AM-1882], for which the remaining activity at 1 µM at TSSK1B (setting [2]) worked out at 100%; on MAP2K3 (setting [2]) it was 67%.
As for `C[C@@H]1CN(c2cccc(NC(=O)c3ccc(NS(=O)(=O)CCO)cc3N3CCC4(CC3)CC4)n2)CCO1` [AM-5308], the remaining activity at 1 µM on TSSK1B (setting [3]) came out at 100%; at MAP2K3 (setting [3]), 88.5%.
